Test system: Neutrophil
Assay: Inhibition of immune complex-stimulated neutrophil oxidative metabolism in New Zealand white rabbit neutrophils assessed as ROS generation at 50 uM after 30 mins by luminol enhanced chemiluminescence assay
Assay type: functional
Settings: Oryctolagus cuniculus, 0.5 h

SMILES | inhibition at 50 µM [%]
O=c1oc2ccc(O)cc2cc1-c1cccc(O)c1 | 31.7
COC(=O)Oc1ccc(-c2cc3cc(OC(=O)OC)c(OC(=O)OC)cc3oc2=O)cc1OC(=O)OC | 99.9
O=c1oc2ccc(O)cc2cc1-c1ccc(O)cc1 | 69.8
COC(=O)Oc1ccc2oc(=O)c(-c3ccc(OC(=O)OC)c(OC(=O)OC)c3)cc2c1 | 92.3
COC(=O)Oc1ccc(-c2cc3cc(OC(=O)OC)ccc3oc2=O)cc1 | 60.3
COC(=O)Oc1ccc2oc(=O)c(-c3ccccc3OC(=O)OC)cc2c1 | 94.6
COC(=O)Oc1ccc2cc(-c3ccc4c(c3)OCO4)c(=O)oc2c1 | 7.9
O=c1oc2cc(O)ccc2cc1-c1ccc2c(c1)OCO2 | 17.5
O=c1oc2ccc(O)cc2cc1-c1ccc2c(c1)OCO2 | 23.2
O=c1oc2ccccc2cc1-c1ccccc1 | 9
O=c1c(O)c(-c2ccc(O)c(O)c2)oc2cc(O)cc(O)c12 [QUERCETIN] | 99.9

Test system: Neutrophil
Assay: Inhibition of immune complex-stimulated neutrophil oxidative metabolism in New Zealand white rabbit neutrophils assessed as ROS generation after 30 mins by luminol enhanced chemiluminescence assay
Assay type: functional, cell-based
Settings: Oryctolagus cuniculus, 0.5 h, read-out: IC50

IC50 [nM] | SMILES
> 50000 | O=c1oc2ccc(O)cc2cc1-c1cccc(O)c1
400 | COC(=O)Oc1ccc(-c2cc3cc(OC(=O)OC)c(OC(=O)OC)cc3oc2=O)cc1OC(=O)OC
29600 | O=c1oc2ccc(O)cc2cc1-c1ccc(O)cc1
2000 | COC(=O)Oc1ccc2oc(=O)c(-c3ccc(OC(=O)OC)c(OC(=O)OC)c3)cc2c1
27400 | COC(=O)Oc1ccc(-c2cc3cc(OC(=O)OC)ccc3oc2=O)cc1
2900 | COC(=O)Oc1ccc2oc(=O)c(-c3ccccc3OC(=O)OC)cc2c1
> 50000 | COC(=O)Oc1ccc2cc(-c3ccc4c(c3)OCO4)c(=O)oc2c1
> 50000 | O=c1oc2cc(O)ccc2cc1-c1ccc2c(c1)OCO2
> 50000 | O=c1oc2ccc(O)cc2cc1-c1ccc2c(c1)OCO2
> 50000 | O=c1oc2ccccc2cc1-c1ccccc1

SMILES | IC50 [nM]
O=c1c(O)c(-c2ccc(O)c(O)c2)oc2cc(O)cc(O)c12 [QUERCETIN] | 2400

Same assay, conditions: Oryctolagus cuniculus, 0.5 h, read-out: pIC50 (converted)

IC50 [nM] | SMILES
389 | COC(=O)Oc1ccc(-c2cc3cc(OC(=O)OC)c(OC(=O)OC)cc3oc2=O)cc1OC(=O)OC
29500 | O=c1oc2ccc(O)cc2cc1-c1ccc(O)cc1
2040 | COC(=O)Oc1ccc2oc(=O)c(-c3ccc(OC(=O)OC)c(OC(=O)OC)c3)cc2c1
27500 | COC(=O)Oc1ccc(-c2cc3cc(OC(=O)OC)ccc3oc2=O)cc1
2880 | COC(=O)Oc1ccc2oc(=O)c(-c3ccccc3OC(=O)OC)cc2c1

Test system: not listed separately
Assay: Cytotoxicity against New Zealand white rabbit neutrophils assessed as cell viability at 50 uM after 30 mins by trypan blue exclusion test
Assay type: cell-based, Oryctolagus cuniculus, Neutrophil
Settings: read-out: Activity

SMILES | viability at 0.5 h, 50 µM [%]
O=c1oc2ccc(O)cc2cc1-c1cccc(O)c1 | 93.8
COC(=O)Oc1ccc(-c2cc3cc(OC(=O)OC)c(OC(=O)OC)cc3oc2=O)cc1OC(=O)OC | 88.8
O=c1oc2ccc(O)cc2cc1-c1ccc(O)cc1 | 89.5
COC(=O)Oc1ccc2oc(=O)c(-c3ccc(OC(=O)OC)c(OC(=O)OC)c3)cc2c1 | 93.3
COC(=O)Oc1ccc(-c2cc3cc(OC(=O)OC)ccc3oc2=O)cc1 | 92.5
COC(=O)Oc1ccc2oc(=O)c(-c3ccccc3OC(=O)OC)cc2c1 | 90.3
COC(=O)Oc1ccc2cc(-c3ccc4c(c3)OCO4)c(=O)oc2c1 | 94.3
O=c1oc2cc(O)ccc2cc1-c1ccc2c(c1)OCO2 | 94.3
O=c1oc2ccc(O)cc2cc1-c1ccc2c(c1)OCO2 | 93.8
O=c1oc2ccccc2cc1-c1ccccc1 | 90.3
O=c1c(O)c(-c2ccc(O)c(O)c2)oc2cc(O)cc(O)c12 [QUERCETIN] | 93

Test system: not listed separately
Assay: Cytotoxicity against New Zealand white rabbit neutrophils assessed as LDH release at 50 uM after 30 mins by spectrophotometry
Assay type: cell-based, Oryctolagus cuniculus
Settings: neutrophil, 0.5 h

SMILES | Activity [%]
O=c1oc2ccc(O)cc2cc1-c1cccc(O)c1 | 11.2
COC(=O)Oc1ccc(-c2cc3cc(OC(=O)OC)c(OC(=O)OC)cc3oc2=O)cc1OC(=O)OC | 20.7
O=c1oc2ccc(O)cc2cc1-c1ccc(O)cc1 | 18.3
COC(=O)Oc1ccc2oc(=O)c(-c3ccc(OC(=O)OC)c(OC(=O)OC)c3)cc2c1 | 9.3
COC(=O)Oc1ccc(-c2cc3cc(OC(=O)OC)ccc3oc2=O)cc1 | 11.6
COC(=O)Oc1ccc2oc(=O)c(-c3ccccc3OC(=O)OC)cc2c1 | 14.6
COC(=O)Oc1ccc2cc(-c3ccc4c(c3)OCO4)c(=O)oc2c1 | 13.8
O=c1oc2cc(O)ccc2cc1-c1ccc2c(c1)OCO2 | 11.1
O=c1oc2ccc(O)cc2cc1-c1ccc2c(c1)OCO2 | 9
O=c1oc2ccccc2cc1-c1ccccc1 | 17.1
O=c1c(O)c(-c2ccc(O)c(O)c2)oc2cc(O)cc(O)c12 [QUERCETIN] | 10.9

Test system: Neutrophil
Assay: Inhibition of immune complex-stimulated neutrophil oxidative metabolism in New Zealand white rabbit neutrophils assessed as ROS generation after 30 mins by lucigenin enhanced chemiluminescence assay
Assay type: functional, cell-based
Settings: Oryctolagus cuniculus, 0.5 h, read-out: IC50

IC50 [µM] | SMILES
5.2 | O=c1oc2ccc(O)cc2cc1-c1cccc(O)c1
0.4 | COC(=O)Oc1ccc(-c2cc3cc(OC(=O)OC)c(OC(=O)OC)cc3oc2=O)cc1OC(=O)OC
4.3 | O=c1oc2ccc(O)cc2cc1-c1ccc(O)cc1
1.8 | COC(=O)Oc1ccc2oc(=O)c(-c3ccc(OC(=O)OC)c(OC(=O)OC)c3)cc2c1
4 | COC(=O)Oc1ccc(-c2cc3cc(OC(=O)OC)ccc3oc2=O)cc1
2.6 | COC(=O)Oc1ccc2oc(=O)c(-c3ccccc3OC(=O)OC)cc2c1
7.3 | COC(=O)Oc1ccc2cc(-c3ccc4c(c3)OCO4)c(=O)oc2c1
8.6 | O=c1oc2cc(O)ccc2cc1-c1ccc2c(c1)OCO2
5.6 | O=c1oc2ccc(O)cc2cc1-c1ccc2c(c1)OCO2
> 50 | O=c1oc2ccccc2cc1-c1ccccc1

SMILES | IC50 [µM]
O=c1c(O)c(-c2ccc(O)c(O)c2)oc2cc(O)cc(O)c12 [QUERCETIN] | 4.7

Same assay, conditions: Oryctolagus cuniculus, 0.5 h, read-out: pIC50 (converted)

IC50 [µM] | SMILES
5.25 | O=c1oc2ccc(O)cc2cc1-c1cccc(O)c1
0.363 | COC(=O)Oc1ccc(-c2cc3cc(OC(=O)OC)c(OC(=O)OC)cc3oc2=O)cc1OC(=O)OC
4.37 | O=c1oc2ccc(O)cc2cc1-c1ccc(O)cc1
1.78 | COC(=O)Oc1ccc2oc(=O)c(-c3ccc(OC(=O)OC)c(OC(=O)OC)c3)cc2c1
3.98 | COC(=O)Oc1ccc(-c2cc3cc(OC(=O)OC)ccc3oc2=O)cc1
2.57 | COC(=O)Oc1ccc2oc(=O)c(-c3ccccc3OC(=O)OC)cc2c1
≥ 7.24 | COC(=O)Oc1ccc2cc(-c3ccc4c(c3)OCO4)c(=O)oc2c1
8.51 | O=c1oc2cc(O)ccc2cc1-c1ccc2c(c1)OCO2
5.62 | O=c1oc2ccc(O)cc2cc1-c1ccc2c(c1)OCO2

Test system: Neutrophil
Assay: Inhibition of immune complex-stimulated neutrophil oxidative metabolism in New Zealand white rabbit neutrophils assessed as ROS generation at 50 uM after 30 mins by lucigenin enhanced chemiluminescence assay
Assay type: functional
Settings: Oryctolagus cuniculus, 0.5 h

SMILES | inhibition at 50 µM [%]
O=c1oc2ccc(O)cc2cc1-c1cccc(O)c1 | 94.1
COC(=O)Oc1ccc(-c2cc3cc(OC(=O)OC)c(OC(=O)OC)cc3oc2=O)cc1OC(=O)OC | 99.9
O=c1oc2ccc(O)cc2cc1-c1ccc(O)cc1 | 95.7
COC(=O)Oc1ccc2oc(=O)c(-c3ccc(OC(=O)OC)c(OC(=O)OC)c3)cc2c1 | 97.5
COC(=O)Oc1ccc(-c2cc3cc(OC(=O)OC)ccc3oc2=O)cc1 | 92.5
COC(=O)Oc1ccc2oc(=O)c(-c3ccccc3OC(=O)OC)cc2c1 | 96.5
COC(=O)Oc1ccc2cc(-c3ccc4c(c3)OCO4)c(=O)oc2c1 | 67.1
O=c1oc2cc(O)ccc2cc1-c1ccc2c(c1)OCO2 | 79.4
O=c1oc2ccc(O)cc2cc1-c1ccc2c(c1)OCO2 | 83.5
O=c1oc2ccccc2cc1-c1ccccc1 | 27.9
O=c1c(O)c(-c2ccc(O)c(O)c2)oc2cc(O)cc(O)c12 [QUERCETIN] | 99.9
